Measured values from US9260391B2, “Hypoglycemic dihydropyridones” (The Trustees of Columbia University in the City of New York, priority 2008, dated 2016).
Entries after “also recorded” stand apart in the source; their conditions may differ.

Legend:
human islets = assay: Glucose-stimulated insulin secretion of purified human cadaveric islets ex vivo; assay type: cell-based; details: high glucose media; ELISA
Experimental: The islet tissue used in these studies was obtained with institutional review board approval. Pancreas digestion and islet isolation were performed using minor modifications of the Edmonton purification protocol. (Shapiro, […] al. “Islet […] in seven patients with type I diabetes mellitus using a glucocortoid-free immunosuppressive regimen.” New England Journal of Medicine 343(4):230-8, (2000)) The determination of islet cell mass, viability, and purity were also performed. Purified islets were cultured in CMRL 1066 culture media with 10% fetal bovine serum at 37° C. in humidified air (5% CO2) for 18 to 24 hours. The human islet insulin secretory response was performed according to a procedure described by the Edmonton group. (Id.) Briefly, after an overnight culture, islets were incubated with either low or high concentrations of glucose for 2 hours at 37° C. and 5% CO2. The supernatant was collected for insulin measurement. Insulin concentrations in these experiments were analyzed with a human insulin enzyme-linked immunosorbent assay (ELISA) kit (ALPCO Insulin ELISA kit, Windham, N.H.). In some experiments TBZ, DTBZ or epinephrine was added to the cultures before glucose stimulation.

[1] = target: T1, dipeptidyl peptidase IV (DDP-IV) (Homo sapiens, UniProt P27487); assay: Effect on dipeptidyl peptidase IV in vitro (BPS Bioscience assays); assay type: biochemical; details: concentrations up to 10 μM; data not shown
T1 construct: purchased BPS Bioscience, Inc. (San Diego, Calif.)
T1 sequence (P27487 whole entry): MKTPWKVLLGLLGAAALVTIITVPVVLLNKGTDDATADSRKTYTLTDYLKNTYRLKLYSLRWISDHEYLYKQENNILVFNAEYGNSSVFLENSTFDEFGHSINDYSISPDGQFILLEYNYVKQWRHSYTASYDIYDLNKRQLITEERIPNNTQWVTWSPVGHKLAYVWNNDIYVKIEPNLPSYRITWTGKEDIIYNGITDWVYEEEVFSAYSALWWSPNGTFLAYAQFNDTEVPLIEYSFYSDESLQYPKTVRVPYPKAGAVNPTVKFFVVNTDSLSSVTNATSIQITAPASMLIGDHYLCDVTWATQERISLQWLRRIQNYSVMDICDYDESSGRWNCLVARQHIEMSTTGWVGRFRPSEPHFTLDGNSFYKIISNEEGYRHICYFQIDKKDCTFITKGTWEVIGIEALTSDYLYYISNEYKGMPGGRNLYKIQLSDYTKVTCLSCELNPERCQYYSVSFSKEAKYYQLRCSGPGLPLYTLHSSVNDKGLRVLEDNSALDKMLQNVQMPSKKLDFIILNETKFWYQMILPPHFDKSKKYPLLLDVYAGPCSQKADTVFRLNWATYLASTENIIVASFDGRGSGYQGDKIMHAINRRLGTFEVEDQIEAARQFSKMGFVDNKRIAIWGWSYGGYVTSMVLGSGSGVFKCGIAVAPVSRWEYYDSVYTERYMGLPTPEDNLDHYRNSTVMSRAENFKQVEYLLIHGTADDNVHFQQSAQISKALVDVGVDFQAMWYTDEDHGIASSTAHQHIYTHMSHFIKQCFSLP
Experimental: The effect of HG-3 on DDP-IV was determined by assays provided by BPS Bioscience, Inc. (San Diego, Calif.).

VMAT2 in beta cells = target: T2, VMAT2 in beta cells (Rattus norvegicus, UniProt Q01827); assay: PET study: displacement of [11C]DTBZ in the pancreas by cold analog; assay type: in vivo; details: cold compound 2 mg/kg injected 30 min after radioligand; relative to DTBZ
T2 construct: from tissue; host or cells: pancreas (beta cells) of living Lewis rats
T2 sequence (Q01827 whole entry): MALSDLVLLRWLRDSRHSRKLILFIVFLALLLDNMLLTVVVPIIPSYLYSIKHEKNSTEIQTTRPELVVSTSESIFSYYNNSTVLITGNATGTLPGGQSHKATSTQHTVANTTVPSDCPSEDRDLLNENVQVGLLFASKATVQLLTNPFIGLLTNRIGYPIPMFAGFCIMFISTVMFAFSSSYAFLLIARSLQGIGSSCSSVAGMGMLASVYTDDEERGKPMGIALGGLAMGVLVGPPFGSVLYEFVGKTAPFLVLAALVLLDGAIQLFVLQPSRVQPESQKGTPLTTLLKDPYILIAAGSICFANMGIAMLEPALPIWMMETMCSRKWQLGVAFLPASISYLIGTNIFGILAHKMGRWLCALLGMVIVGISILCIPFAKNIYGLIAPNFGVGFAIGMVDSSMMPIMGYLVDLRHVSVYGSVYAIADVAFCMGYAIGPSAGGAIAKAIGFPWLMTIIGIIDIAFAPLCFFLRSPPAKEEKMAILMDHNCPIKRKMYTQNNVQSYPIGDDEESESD
Experimental: PET scans were performed on anesthetized 12-14 week old Lewis male rats injected with radioligand [^11C]DTBZ (0 min, 0.5-1.0 μCi/gm body weight, specific activity >[…]) and cold compound 8 (HG-3) (30 mins, 2 mg/kg). The fraction of radioligand in the pancreas relative to the total amount injected was calculated and plotted versus time after injection. Error bars indicate SEM (n=3).
To test binding to VMAT2 in beta cells, PET scans were performed on 12-14 week old Lewis Male rats. Prior to imaging, the animals were anesthetized by isoflurane inhalation. After a transmission scan of the area of interest had been acquired (used to perform attenuation correction of the emission data), the radioligand [11C]DTBZ was administered (0.5-1.0 μCi/gm) in saline as bolus injection via the penile vein. PET scans of the animals were acquired dynamically to 90 min post injection on a Concorde microPET-R4 (CTI Molecular Imaging, Knoxville, Tenn., USA). The scanner provided a 100×80 mm field of view with a reconstructed resolution of 2.25 mm in the central 40 mm of the field of view. At thirty minutes post injection of [11C]DTBZ, the animals received a second injection via the penile vein of cold analog. […]

Lewis rats = assay: IPGTT of analogs HG-1 to HG-11, compounds given orally (FIG. 15); assay type: in vivo, rat; details: 2 mg/kg orally
Experimental: FIG. 15 is a bar graph showing the results of testing various analogs HG-1 to HG-11 in IPGTT glucose tolerance tests in rats. Results for TBZ, emetine, and olanzapine are also shown. Lewis rats fasted for 6 hours were administered the compounds orally (30 min, 2 mg/kg) followed by intraperitoneal glucose injection (0 min, […]), and plasma glucose levels were monitored for 120 mins. Results are presented as AUC percentage of the vehicle. Error bars indicate SEM (n=5).
Racemic HG-2 and its diastereoisomer HG-1 were evaluated for their ability to improve glucose tolerance by performing intraperitoneal glucose tolerance tests (IPGTT) in rats. IPGTT testing is described above. See also Murthy, R., et al., Eur. J. Nucl. Med. Mol. Imaging, 2008, 35(4), 790-797.

SMILES	insulin secretion by human islets after stimulation by high concentrations of glucose (human islets)	effect on DDP-IV in vitro [1]	displacement of [11C]DTBZ in the endocrine pancreas / binding to VMAT2 (VMAT2 in beta cells)	decrease of the AUC IPGTT (area under the blood glucose concentration-time curve) (Lewis rats; 30 min before i.p. glucose, relative to vehicle, n=5) [%]	hypoglycemic activity in IPGTT compared with TBZ / HG-3 (Lewis rats; FIG. 15)
COc1cc2c(cc1OC)[C@@H]1C[C@H](O)[C@@H](CC(C)C)CN1CC2 [DTBZ, dihydrotetrabenazine]	significantly enhanced the amount of insulin secreted; also recorded: enhances glucose-stimulated insulin secretion				
COc1ccc(C2CC(OCC(C)C)=CC(=O)N2)cc1OC (stereo not shown) [HG-3, 6-(3,4-dimethoxyphenyl)-4-isobutoxy-5,6-dihydropyridin-2(1H)-one]		negative	did not significantly displace	45	potent hypoglycemic effect; also recorded: significant decrease in blood glucose levels as compared to TBZ
COc1ccc(C2CC(O)C(CC(C)C)C(=O)N2)cc1OC (stereo not shown) [HG-4]			weak binding		
CNC[C@H](O)c1ccc(O)c(O)c1 [epinephrine, L-epinephrine bitartrate]	inhibited secretion of insulin				
